Source: patent publication US12091405B2, “Substituted pyrazole compounds as indoleamine 2,3-dioxygenase inhibitors” (Merck Sharp & Dohme LLC, priority 2018, dated 2024)

What was measured:
IDO1 [1] = target: T1, IDO1 (Homo sapiens, UniProt P14902); test: IDO1 Cellular Assay in HeLa Cells Stimulated with IFNγ; format: cell-based; settings: IFNγ 100 ng/mL, 300 uM L-tryptophan, about 48 hours, fluorescence readout, read-out: IDO1 HELA Cell Assay, IC50
IDO1 [2] = target: T1, IDO1; test: IDO1 Human Whole Blood Assay; format: cell-based; design: Human whole blood was drawn in sodium heparin coated tubes from healthy internal donors; from tissue; host or cells: human whole blood from healthy donors, stimulated with LPS and IFNγ; settings: LPS and IFNγ 100 ng/mL, overnight (18 h), kynurenine by LC/MS/MS
Experimental: IDO1 Human Whole Blood Assay
Compounds to be tested were serially diluted in ten 3-fold steps in DMSO starting from 10 mM. 3 μL of compound dilutions or DMSO alone were then dispensed from the dilution plate into a polypropylene 96-well assay plate containing 97 μL of RPMI medium using an Echo 555 acoustic liquid handler (Labcyte). LPS and IFNγ was prepared in RPMI medium to a 10× of final conc. (1000 ng/mL), final concentration is 100 ng/mL.
Human whole blood was drawn in sodium heparin coated tubes from healthy internal donors. 240 μL of blood was transferred to each of the wells of a v-bottom 96 well plate. 30 μL of compound was transferred from intermediate dilution plate, and incubated for 15 min. 30 μL from stimulants was then transferred to blood and mixed thoroughly. Plate was covered with breathable membrane and incubated at 37° C. for overnight (18 h).
On day 2, isotope labeled standard solutions of kynurenine and tryptophan was made in water at 10× concentration and 30 μL was added to the blood at 3 μM final concentration. The assay plates were centrifuged at 300×G for 10 min with no brake to separate plasma from red blood cells. 60 μL of plasma samples was removed without disturbing red blood cells. Plasma was diluted with RPMI in 1:1 ratio and proteins were precipitated out with two volumes of Acetonitrile. The plates were centrifuged at 4000×G for 60 min. 20 μL of supernatant was carefully transferred to a 384 well plate containing 40 μL of 0.1% formic acid in water and analyzed by LC/MS/MS.
LC/MS/MS analyses were performed using Thermo Fisher's LX4-TSQ Quantum Ultra system. This system consists of four Agilent binary high-performance liquid chromatography (HPLC) pumps and a TSQ Quantum Ultra triple quadrupole MS/MS instrument. For each sample, 5 μL were injected onto an Atlantis T3 column (2.1 mm×150 mm, 3 μm particle size) from Waters. The mobile phase gradient pumped at 0.8 mL/min was used to elute the analytes from the column at 25 EC. The elution started at 0% B increasing linearly to 25% B at 6.5 min, holding at 25% for 1 min, re-equilibrating to 10 min. Mobile phase A consisted of 0.1% formic acid in water. Mobile phase B consisted of 0.1% of formic acid in acetonitrile. Data were acquired in positive mode using a HESI interface. The operational parameters for the TSQ Quantum Ultra instrument were a spray voltage of 4000 V, capillary temperature of 380° C., vaporizer temperature 400° C., shealth gas 60 arbitrary units, Aux gas 20 arbitrary units, tube lens 85 and collision gas 1.2 mTorr. SRM chromatograms of kynurenine (Qi: 209.2>Q3:94.0) and internal standard (Qi: 215.3>Q3:98.2) were collected for 90 sec. The peak area was integrated by Xcalibur Quan software. The ratios between the kynurenine generated in the reaction and 2D6-Kynurenine spiked-in internal standard were used to generate percentage inhibition and IC50 values. Compounds were titrated and IC50's were calculated by 4 parameter sigmoidal curve fitting formula.
The biological activity data of selective compounds using the IDO1 human whole blood assay described above are summarized in the table below.

T1 sequence (P14902 whole entry): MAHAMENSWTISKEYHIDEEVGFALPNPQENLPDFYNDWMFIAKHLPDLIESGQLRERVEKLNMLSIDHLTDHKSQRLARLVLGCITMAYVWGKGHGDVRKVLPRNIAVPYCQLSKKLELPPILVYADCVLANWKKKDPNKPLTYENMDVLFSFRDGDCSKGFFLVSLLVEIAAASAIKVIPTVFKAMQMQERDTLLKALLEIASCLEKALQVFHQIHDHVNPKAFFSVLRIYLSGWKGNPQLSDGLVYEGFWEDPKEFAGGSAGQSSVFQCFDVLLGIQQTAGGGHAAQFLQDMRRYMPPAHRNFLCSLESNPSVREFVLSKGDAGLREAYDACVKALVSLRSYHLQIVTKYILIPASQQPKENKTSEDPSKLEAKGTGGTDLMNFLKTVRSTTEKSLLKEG

| Structure (SMILES) | IC50 (IDO1 [1]) | IC50 (IDO1 [2]) |
| --- | --- | --- |
| Cc1cccc(C2CCN(C(=O)Cn3nc(C(=O)N4CCC(O)CC4)c4c3CCC4)CC2(F)F)c1C (single isomer, unassigned) [Example 14, 1-(4-(2,3-dimethylphenyl)-3,3-difluoropiperidin-1-yl)-2-(3-(4-hydroxypiperidine-1-carbonyl)-5,6-dihydrocyclopenta[c]pyrazol-1(4H)-yl)ethanone] | 3.4 nM | 1390 nM |
| Cc1cccc(C2CCN(C(=O)Cn3nc(C(=O)N4CC[C@H](O)[C@H](F)C4)c4c3CCC4)CC2)c1C (single isomer, unassigned) [Example 61, 1-(4-(2,3-dimethylphenyl)piperidin-1-yl)-2-(3-((3R,4S or 3S, 4R)-3-fluoro-4-hydroxypiperidine-1-carbonyl)-5,6-dihydrocyclopenta[c]pyrazol-1(4H)-yl)ethanone] | 3.7 nM | 545 nM |
| Cc1cccc(C2(F)CCN(C(=O)Cn3nc(C(=O)N4C[C@@H](C)O[C@@H](C)C4)c4c3CCC4)CC2)c1C [Example 7, 2-(3-((2R,6S)-2,6-dimethylmorpholine-4-carbonyl)-5,6-dihydrocyclopenta[c]pyrazol-1(4H)-yl)-1-(4-(2,3-dimethylphenyl)-4-fluoropiperidin-1-yl)ethanone] | 3.2 nM | 1210 nM |
| Cc1cccc(C2(F)CCN(C(=O)Cn3nc(C(=O)N4CCC(O)CC4)c4c3CCC4)CC2)c1C [Example 9, 1-(4-(2,3-dimethylphenyl)-4-fluoropiperidin-1-yl)-2-(3-(4-hydroxypiperidine-1-carbonyl)-5,6-dihydrocyclopenta[c]pyrazol-1(4H)-yl)ethanone] | 11.1 nM | 3370 nM |
| Cc1cccc(C2CCN(C(=O)Cn3nc(C(=O)N4CCN(C(=O)CO)CC4)c4c3C[C@H]3C[C@@H]43)CC2)c1C [Example 18, 1-[4-(2,3-dimethylphenyl)piperidin-1-yl]-2-{(3bR,4aR)-3-[4-(hydroxyacetyl)piperazine-1-carbonyl]-3b,4,4a,5-tetrahydro-1H-cyclopropa[3,4]cyclopenta[1,2-c]pyrazol-1-yl}ethan-1-one] | 2.3 nM | 58.9 nM |
| Cc1cccc(C2CCN(C(=O)Cn3nc(C(=O)N4CC[C@@H](O)[C@@H](F)C4)c4c3C[C@H]3C[C@@H]43)CC2)c1C [Example 25, 1-[4-(2,3-dimethylphenyl)piperidin-1-yl]-2-{(3bR,4aR)-3-[(3S,4R)-3-fluoro-4-hydroxypiperidine-1-carbonyl]-3b,4,4a,5-tetrahydro-1H-cyclopropa[3,4]cyclopenta[1,2-c]pyrazol-1-yl}ethan-1-one] | 1.6 nM | 192 nM |
| Cc1cccc(C2CCN(C(=O)Cn3nc(C(=O)N4CC[C@H](O)[C@H](F)C4)c4c3C[C@H]3C[C@@H]43)CC2)c1C [Example 26, 1-[4-(2,3-dimethylphenyl)piperidin-1-yl]-2-{(3bR,4aR)-3-[(3R,4S)-3-fluoro-4-hydroxypiperidine-1-carbonyl]-3b,4,4a,5-tetrahydro-1H-cyclopropa[3,4]cyclopenta[1,2-c]pyrazol-1-yl}ethan-1-one] | 1.8 nM | 258 nM |
| Cc1cccc(C2CCN(C(=O)Cn3nc(C(=O)N4CCC(O)(CF)CC4)c4c3CCC4)CC2)c1C [Example 31, 1-[4-(2,3-dimethylphenyl)-1-piperidyl]-2-[3-[4-(fluoromethyl)-4-hydroxy-piperidine-1-carbonyl]-5,6-dihydro-4H-cyclopenta[c]pyrazol-1-yl]ethanone] | 5.1 nM | 87.6 nM |
| Cc1cccc(C2CCN(C(=O)Cn3nc(C(=O)N4CCC(OCCO)CC4)c4c3CCC4)CC2)c1C [Example 33, 1-(4-(2,3-dimethylphenyl)piperidin-1-yl)-2-(3-(4-(2-hydroxyethoxy)piperidine-1-carbonyl)-5,6-dihydrocyclopenta[c]pyrazol-1(4H)-yl) ethanone] | 1.1 nM | 30.9 nM |
| Cc1cccc(C2CCN(C(=O)Cn3nc(C(=O)N4CC[C@@H](O)[C@@H](F)C4)c4c3CCCC4)CC2)c1C [Example 35, 1-(4-(2,3-dimethylphenyl)piperidin-1-yl)-2-(3-((3S,4R)-3-fluoro-4-hydroxypiperidine-1-carbonyl)-4,5,6,7-tetrahydro-1H-indazol-1-yl) ethanone] | 1.3 nM | 221 nM |
| Cc1cccc(C2CCN(C(=O)Cn3nc(C(=O)N4CCC(O)(CF)CC4)c4c3CCCC4)CC2)c1C [Example 36, 1-(4-(2,3-dimethylphenyl)piperidin-1-yl)-2-(3-(4-(fluoromethyl)-4-hydroxypiperidine-1-carbonyl)-4,5,6,7-tetrahydro-1H-indazol-1-yl) ethanone] | 1.6 nM | 50.8 nM |
| Cc1c(C2CCN(C(=O)Cn3nc(C(=O)N4C[C@@H](C)O[C@@H](C)C4)c4c3CCC4)CC2)ccc(F)c1F [Example 174, 1-[4-(3,4-difluoro-2-methylphenyl)piperidin-1-yl]-2-{3-[(2R,6S)-2,6-dimethylmorpholine-4-carbonyl]-5,6-dihydrocyclopenta[c]pyrazol-1(4H)-yl}ethan-1-one] | 10.3 nM | – |

Other lines, results leading:

| IC50 (IDO1 [1]) | IC50 (IDO1 [2]) | Structure (SMILES) |
| --- | --- | --- |
| 1 nM | 59.6 nM | Cc1c(Cl)cccc1C1CCN(C(=O)Cn2nc(C(=O)N3CCN(C(=O)CO)CC3)c3c2C[C@H]2C[C@@H]32)CC1 [Example 17, 1-(4-(3-chloro-2-methylphenyl)piperidin-1-yl)-2-((3bR,4aR)-3-(4-(2-hydroxyacetyl)piperazine-1-carbonyl)-3b,4,4a,5-tetrahydro-1H-cyclopropa[3,4]cyclopenta[1,2-c]pyrazol-1-yl)ethanone] |
| 0.9 nM | 219 nM | Cc1cccc(C2CCN(C(=O)Cn3nc(C(=O)N4CC[C@@H](O)[C@H](C)C4)c4c3C[C@H]3C[C@@H]43)CC2)c1C [Example 19, 1-[4-(2,3-dimethylphenyl)piperidin-1-yl]-2-{(3bR,4aR)-3-[(3R,4R)-4-hydroxy-3-methylpiperidine-1-carbonyl]-3b,4,4a,5-tetrahydro-1H-cyclopropa[3,4]cyclopenta[1,2-c]pyrazol-1-yl}ethan-1-one] |
| 0.9 nM | 53.3 nM | Cc1cccc(C2CCN(C(=O)Cn3nc(C(=O)N4CC[C@H](O)[C@H](C)C4)c4c3C[C@H]3C[C@@H]43)CC2)c1C [Example 20, 1-[4-(2,3-dimethylphenyl)piperidin-1-yl]-2-{(3bR,4aR)-3-[(3R,4S)-4-hydroxy-3-methylpiperidine-1-carbonyl]-3b,4,4a,5-tetrahydro-1H-cyclopropa[3,4]cyclopenta[1,2-c]pyrazol-1-yl}ethan-1-one] |
| 0.9 nM | 328 nM | Cc1cccc(C2CCN(C(=O)Cn3nc(C(=O)N4CC[C@H](O)[C@@H](C)C4)c4c3C[C@H]3C[C@@H]43)CC2)c1C [Example 21, 1-[4-(2,3-dimethylphenyl)piperidin-1-yl]-2-{(3bR,4aR)-3-[(3S,4S)-4-hydroxy-3-methylpiperidine-1-carbonyl]-3b,4,4a,5-tetrahydro-1H-cyclopropa[3,4]cyclopenta[1,2-c]pyrazol-1-yl}ethan-1-one] |
| 1.1 nM | 69.1 nM | Cc1cccc(C2CCN(C(=O)Cn3nc(C(=O)N4CC[C@@H](O)[C@@H](C)C4)c4c3C[C@H]3C[C@@H]43)CC2)c1C [Example 22, 1-[4-(2,3-dimethylphenyl)piperidin-1-yl]-2-{(3bR,4aR)-3-[(3S,4R)-4-hydroxy-3-methylpiperidine-1-carbonyl]-3b,4,4a,5-tetrahydro-1H-cyclopropa[3,4]cyclopenta[1,2-c]pyrazol-1-yl}ethan-1-one] |
| 0.8 nM | 83.7 nM | Cc1cccc(C2CCN(C(=O)Cn3nc(C(=O)N4CC[C@H](O)[C@@H](F)C4)c4c3CCCC4)CC2)c1C [Example 32, 1-(4-(2,3-dimethylphenyl)piperidin-1-yl)-2-(3-((3S,4S)-3-fluoro-4-hydroxypiperidine-1-carbonyl)-4,5,6,7-tetrahydro-1H-indazol-1-yl) ethanone] |
